Laboratory results taken from patent US20050171063A1, “Use of phosphono derivatives as anti-malarials” (priority 2003, published 2005).

Experiments:
P. berghei [1] = test: Effect of PAA on survival of infected mice; type: in vivo, BALB/c mice; conditions: dose in the range of about 1 to 50 mg/kg (embodiment)
Method: (§1) BALB/c mice (4-6 weeks old) were infected with 10^5 P. berghei parasites/mouse. After four days of infection, when phosphono acetic acid (dissolved in saline and filter sterilized) at a dose of either 25 mg/kg body weight, or 50 mg/kg body weight. The injection of phosphono acetic acid was continued, once a day, for four days. After the fourth day of injection, parasitemea was determined by making Geimsa stained blood smears from the mice.
Effect of PAA on Survival of Infected Mice
The compound of various concentrations was added to the 200 μl of synchronized P. falciparum culture (1% parasitemia). The parasitemia was checked by making Giemsa stained smear after 48 hrs of incubation at 37° C. The compound, PAA was used at the doses of 25 mg/kg and 50 mg/kg body weight. The control group indicates the group of mice infected with the parasite, but with no drug given.

P. berghei [2] = test: Effect on P. berghei infected mice (in vivo model), parasitemia by Giemsa stained blood smears; parameters: species or system BALB/c mice; conditions: 50 mg/kg of body weight, once a day for four days
Method: Effect of Phosphono Acetic Acid on P. berghei Infected Mice (In Vivo Model)
as §1

[3] = test system: 3D7 strain of P. falciparum; test: Microscopy of Giemsa-stained slides, 3D7 strain of P. falciparum; type: cell-based, Plasmodium falciparum; conditions: upon addition of PAA
Description: The effect of Phosphono Acetic Acid on the 3D7 Strain of P. falciparum Giemsa-stained slides prepared for the experiment were examined under a microscope and represented in Plate 4. […] It is clear that PAA actually kills the parasite rather than simply inhibiting their growth (FIG. 4).

P. falciparum = test: Effect of drug on P. falciparum in vitro: synchronized culture, Giemsa stained smear after 48 hrs; type: cell-based, Plasmodium falciparum
Method: Phosphono acetic acid was dissolved in normal saline and filter sterilized. The compound was added to the parasite culture at different concentrations ranging from 1-400 μm. The compound phosphono acetic acid was tested at the indicated doses using the experimental protocol as described below:
Protocol for Testing the Effect of Drug on P. falciparum for In Vitro Studies
The P. falciparum cultures were synchronized at first by sorbitol treatment. The compound of various concentrations was added to the 200 μl of synchronized P. falciparum culture (1% parasitemia). The parasitemia was checked by making Giemsa stained smear after 48 hrs of incubation at 37° C. The growth of P. falciparum was inhibited in dose-dependent manner, where 1 μM concentration yielded >90% inhibition (Plate 1). The bars represent the percent inhibition, whereas, the blue curve indicates the percentage of parasitemia.
Phosphono formic acid was dissolved in normal saline and filter sterilized. The compound was added to the parasite culture at different concentrations ranging from 1-10 μM. The growth of P. falciparum was inhibited in dose-dependent manner, where 10 μM concentration yielded −70% inhibition (FIG. 2).

Row | Compound | enhances the survival (P. berghei [1]) | inhibition of growth of P. berghei (P. berghei [2]) [%] | effect on parasite seen under microscope [3] | inhibition of growth of P. falciparum (P. falciparum; 1 μM concentration, 48 hrs, 1% parasitemia) [%] | inhibits growth of P. falciparum (P. falciparum; range of about 1 to 5 μM (embodiment)) | inhibition of growth of P. falciparum (P. falciparum; 10 μM concentration) [%]
1 | O=C(O)CP(=O)(O)O [phosphono acetic acid] | about 60% | −60 | disintegrated trophozoltes are seen | > 90 | about 100% | 
2 | O=C(O)P(=O)(O)O [phosphono formic acid] |  |  |  |  |  | −70
